Experimental data: patent US10844023B2 (Washington University, priority 2017, dated 2020)

System: Mfn2 null MEFs
Assay: Mitochondrial elongation (aspect ratio) fusogenicity assay
Type: cell-based, mouse
Design: % long compare to B: dose or concentration left out as unconfirmed
Conditions: for % long compare to B: mitochondrial elongation relative to Cpd B (B01 = 100), compound overnight as printed (FIG. 48); for % long compare to B / Aspect ratio (MEAN ± SEM): Mfn2 null MEFs; for Aspect ratio (MEAN ± SEM): overnight, treatment with 1 μM compound (footnote); for Fusogenicity Rank: rank order of aspect ratio among 44 soluble library compounds

| Structure (SMILES) | % long compare to B | Aspect ratio (MEAN ± SEM) | Fusogenicity Rank |
| --- | --- | --- | --- |
| O=C1CC(SCCc2nc3ccccc3[nH]2)C(=O)N1c1cccc(F)c1 (centres unmarked) [D09, 3-{[2-(1H-1,3-benzodiazol-2-yl)ethyl]sulfanyl}-1-(3-fluorophenyl)pyrro-lidine-2,5-dione] | 73% | – | – |
| Cc1ccc(SC2CCN(Cc3cc4n(n3)CCNC4)CC2)cc1 [D10, 4-[(4-methylphenyl)sulfanyl]-1-({4H,5H,6H,7H-pyrazolo[1,5-a]pyrazin-2-yl}methyl)piperidine] | −7% | – | – |
| Cc1nc[nH]c1CSCCNC(=O)C1CCN(C(=O)C2CCC2)CC1 [D11, 1-cyclobutanecarbonyl-N-(2-{[(4-methyl-1H-imidazol-5-yl)methyl]sulfanyl}-ethyl)piperidine-4-carboxamide] | −8% | – | – |
| Cc1ccc(N2C[C@@H]3CC[C@H](C2)N(Cc2ccccn2)C3=O)nn1 [D12, (1S,5R)-3-(6-methylpyridazin-3-yl)-6-[(pyridin-2-yl)methyl)-3,6-diazabicyclo[3.2.2] nonan-7-one] | −4% | – | – |
| CC(C)C1=CC2C(=O)NC(CSCC(=O)NCc3ccccn3)=NC2S1 (centres unmarked) [E02, 2-({[4-oxo-6-(propan-2-yl)-3H,4H,4aH,7aH-thieno[2,3-d]pyrimidin-2-yl]methyl}sulfanyl)-N-[(pyridin-2-yl)methyl]acetamide] | 11% | – | – |
| Cc1nc[nH]c1CSCCn1cnc2cn(C)nc2c1=O [E03, 2-methyl-6-(2-{[(4-methyl-1H-imidazol-5-yl)methyl]sulfanyl}-ethyl)-2H,6H,7H-pyrazolo[4,3-d]pyrimidin-7-one] | −10% | – | – |
| CCC(C)NC(=O)c1ccccc1NC(=O)C(C)Sc1ccc(C)cc1 (centres unmarked) [E04, N-(butan-2-yl)-2-{2-[(4-methyl-phenyl)sulfanyl]pro-panamido}benzamide] | 1% | – | – |
| O=C(NCCSCc1ccccc1)C1CCCCO1 (centres unmarked) [E05, N-[2-(benzyl-sulfanyl)ethyl]oxane-2-carboxamide] | 1% | – | – |
| Cc1nnc(SCCCNC(=O)c2n[nH]c3c2CN(C)CC3)s1 [E06, 5-methyl-N-{3-[(5-methyl-1,3,4-thiadiazol-2-yl)sulfanyl]propyl}-1H,4H,5H,6H,7H-pyrazolo[4,3-c]pyridine-3-carboxamide] | −3% | – | – |
| c1ccc(CSCCc2nc(C3CCOC3)no2)cc1 (centres unmarked) [E07, 5-[2-(benzylsulfanyl)ethyl]-3-(oxolan-3-yl)-1,2,4-oxadiazole] | 4% | – | – |
| CC(c1cccc([N+](=O)[O-])c1)N(C)CC(=O)NCCSCc1ccccc1C#N (centres unmarked) [N-(2-{[(2-cyanophenyl)methyl]sulfanyl}ethyl)-2-{methyl[1-(3-nitrophenyl)ethyl]amino}acetamide] | – | 4.0 ± 0.5 | 16 |
| Cc1cccc(NC(=O)CSCC(=O)N(Cc2ccc(N(C)C)cc2)C(C)C)c1 [N-{[4-(dimethylamino)phenyl]methyl}-2-({[(3-methylphenyl)carbamoyl]methyl}sulfanyl)-N-(propan-2-yl)acetamide] | – | 4.6 ± 0.2 | 12 |
| Cc1cc(C)n2nc(C(=O)N3C[C@@H]4CCN(Cc5nccn5C)[C@@H]4C3)cc2n1 [drawing 198, 2-{[(3aS,6aS)-5-{5,7-dimethylpyrazolo[1,5-a]pyrimidine-2-carbonyl}-octahydropyrrolo[3,4-b]pyrrol-1-yl]methyl}-1-methyl-1H-imidazole] | – | 9.0 ± 3.1 | 1 |
| O=C1CC(SCCc2nc3ccccc3[nH]2)C(=O)N1c1cccc(F)c1 (centres unmarked) [drawing 199, 3-{[2-(1H-1,3-benzodiazol-2-yl)ethyl]sulfanyl}-1-(3-fluorophenyl)pyrrolidine-2,5-dione] | – | 6.9 ± 0.8 | 3 |
| Cc1ccc(C(C)C)c(OCCCSCc2nc3ccccc3[nH]2)c1 [drawing 200, 2-[({3-[5-methyl-2-(propan-2-yl)phenoxy]propyl}sulfanyl)methyl]-1H-1,3-benzodiazole] | – | 3.0 ± 0.4 | 37 |
